Source: EP0893123A1, “AGENT FOR USE IN THE PREVENTION AND TREATMENT OF DISORDERS ASSOCIATED WITH VARIOUS TYPES OF AGEING” (Peganov, Eduard Maximovich, priority 1995, dated 1997)

How the values were obtained:
[1] = Body weight of old rats during 21 days of drinking water containing D2O; assay type: in vivo; details: for weight of the animals: experimental group
Protocol: (§1) The experiments were performed on 20 old (29-30 months) outbred female rats. During 21 days control group (9 rats) received usual water as free drinking, and experimental group (11 rats) drank water, containing ? 2O. Control weighing and visual observation of their behaviour was carried out. Then for 6 days both groups received usual water "to wash out " heavy water from the body in order to put both groups in equal conditions in the subsequent experiments. After that the experiment was carried out as follows: each day one control or one experimental animal was narcotised by urethane (1,3 g/kg) and decapitated. The hippocampal slices then were prepared, which were transferred to the special thermostatic chamber, where they were incubated during the experiment. The chamber was perfused at the rate of 2 ml/minute with physiological solution (content in mM: NaCl-124; KCl-5,0; CaCl2-2,5; MgSO4- 2,4; KH2PO4-1,25; NaHCO3-26; glucose-15; pH―7,4-7,5;), saturated with carbogen (95 % O2 and 5 % CO2). The slices were stored for 20-30 minutes at room temperature, then temperature was increased up to 28-29°C. Electrical activity was recorded in 1-1,5 hour after preparation of slices. The recording glass microelectrodes, filled with 2M solution of sodium citrate (electrical resistance 5-25 Mo ? ) were inserted into the layer of pyramidal neurones. Electrical stimulation of Shaffer's collaterals was made through double-barrel glass microelectrodes, filled with physiological solution, with the resistance up to 2 Mo ? , by the rectangular pulses (amplitude up to 40 V, duration 0.2 msec, frequency 0,2-0,3 Hz). Data processing was made on the computer (" Electronics D3-28 ").

hippocampus of old rats = assay: Long term potentiation (LTP, model of ageing): electrophysiology of hippocampal slices from treated old rats; assay type: in vivo; parameters: PS amplitude on the average: unit not given here
Text: The following examples illustrate the invention: Example 1. Long term potentiation (LTP, model of ageing) The adequacy of the choice of the model is due the following factors: • LTP phenomenon relates to function of memory, being an initial stage in a chain of processes, resulting in formation of traces of long-term memory, since the impairment of LTP is accompanied on the behavioral level by impairment of memory, first of all on current events (Landfield . W., Lynch G., " Impaired monosynaptic potentiation of in vitro hippocmpal slices aged memory-deficient rats., J. Gerontology, 1977, v.32, 5, pp. 523-533; Landfield P.W., Pilter T.A. Applegate M. D., " The aged hippocampus: A model system for studies on mechanisms of behavioral plasticity and brain ageing) The Hippocampus, 1986, v.3, pp. 323-367). • the decrease of the content of various protein structures in old animals is reported (Monaghan D.T.et al is observed., " Age dependent loss of NMDA receptors in rodent brains ", Soc. Neurosci. Abstr.,1988, v.14, p.486; Angeluoci L., Imperato A.. " Age-dependent loss of muscarinic receptors and cholinergic impairment in the rats brain ", Neuroscience Letters, Suppl. 39, 1990, p. 8), • the degree of dementia was reported to correlate with decrease of the membrane surface density of N-methyl-D-aspartate receptors, responsible for LTP, in patients with SDAT (Represa A., et al., " Is senile dementia of the Alzheimer type associated with hippocampal plasticity", Brain research, 1988, v.457, 355-359). the decrease of the rate of overall protein synthesis and, as a consequence, deficits of various proteins and products of non-protein synthesis is characteristic not only for a brain, but also for all organs and systems and are the mostly ascertained facts, concerning ageing, and recognised markers of ageing (Markides S.C. " Protein synthesis and degradation during aging and senescence ", Biol. Rev., 19836 v.58, 343-422; Rattan S. I., " Ageing and discase: proteins as the molecular link ", Perspect. Biol and Med., 1991, v.34, 4. Pp 526-533).
as §1
Results . On the average in control group weight of the animals was : at the 1-st day 365 ± 37 g, at 21-th day 380 ± 38 g. […]

staphylococcus toxin = system: staphylococcus toxin; parameters: species or system outbred white rats; details: rat, in vivo
[2] = system: pseudomonas aeruginosa strain N 450; assay: Model of sepsis (intramuscular pseudomonas aeruginosa culture in 10% CaCl2); details: D2O consumed 2 days before and 9 days after infection, fig. 8
pneumococcus = assay: Bacterial shock model (intraperitoneal pneumococcus culture, minimal lethal dose)

## deuterium oxide [heavy water]
[1]; at 21-th day of drinking water containing D2O
  weight of the animals: 375 ± 34 g
[1]; at the first day, old (29-30 months) female rats
  weight of the animals: 373 ± 25 g
[1]; experimental vs control group, 21 days
  differences in animals weight and in the weight increment between the two groups: No statistically significant differences
Hippocampus of old rats; 7 of 10 old rats of experimental group
  LTP occurred (share of rats): 70%
Hippocampus of old rats; 12 of 18 experimental hippocampal slices
  Focal evoked potentials (FEP) with preserved pre- and postsynaptic components registered (share of HSs): 67%
Hippocampus of old rats; 13 of 18 experimental hippocampal slices, 21 days D2O, 6 days wash out
  spontaneous pulse activity of pyramidal neurons of field CA1 detected (share of HSs): 72%
Hippocampus of old rats; LTP = PS amplitude after tetanization increased more than by 25 %, sustained more than 30 minutes
  LTP occurred (number of HSs): 10 of 18
Hippocampus of old rats; after second tetanization, example of figure 4
  increment of the potentiated response: 730%
Hippocampus of old rats; after tetanization, experimental group
  PS amplitude increased on the average (LTP): 151 % + 26
Hippocampus of old rats; all cases, experimental group
  effect of repeated tetanization: further increase of the potentiated response
Hippocampus of old rats; last three treated animals tested on 25-th, 26-th and 27-th days after D2O cancellation
  persistence of restored LTP after cancellation of treatment: persisted long (about month) after cancellation of treatment
Hippocampus of old rats; population spikes in experimental HSs
  PS amplitude on the average: 217 ± 55
Hippocampus of old rats; stimulation by frequency of 1 Hz
  average increase of amplitude PS (frequency potentiation): 55±31%
Staphylococcus toxin
  survival of animals: 40%
  time of dying: delay of the time of dying
[2]
  delay of lethal outcomes: 3 days
[2]; vs control
  decrease of lethality: 3 times
pneumococcus; in 48 hours, when 100% of control animals had died, fig. 5
  experimental animals still alive: 50%
pneumococcus; pneumococcus culture, 10 mice, D2O drunk 2-4 days before, fig. 5
  dying delayed with respect to control animals: about 24 hours
pneumococcus; with additional treatment during shock to maintain blood circulation, fig. 6
  dying delayed: 48 h
